According to US9339508B2, “Use of 3-methoxy-pregnenolone for the preparation of a drug for treating a traumatic brain injury” (MAPREG, priority 2003, dated 2016):

Biological target: T1, human progesterone receptor (PR) (Homo sapiens, UniProt P06401)
T1 construct: expressed in transfected cells; host or cells: HEK293T cells
T1 sequence (P06401 1-933): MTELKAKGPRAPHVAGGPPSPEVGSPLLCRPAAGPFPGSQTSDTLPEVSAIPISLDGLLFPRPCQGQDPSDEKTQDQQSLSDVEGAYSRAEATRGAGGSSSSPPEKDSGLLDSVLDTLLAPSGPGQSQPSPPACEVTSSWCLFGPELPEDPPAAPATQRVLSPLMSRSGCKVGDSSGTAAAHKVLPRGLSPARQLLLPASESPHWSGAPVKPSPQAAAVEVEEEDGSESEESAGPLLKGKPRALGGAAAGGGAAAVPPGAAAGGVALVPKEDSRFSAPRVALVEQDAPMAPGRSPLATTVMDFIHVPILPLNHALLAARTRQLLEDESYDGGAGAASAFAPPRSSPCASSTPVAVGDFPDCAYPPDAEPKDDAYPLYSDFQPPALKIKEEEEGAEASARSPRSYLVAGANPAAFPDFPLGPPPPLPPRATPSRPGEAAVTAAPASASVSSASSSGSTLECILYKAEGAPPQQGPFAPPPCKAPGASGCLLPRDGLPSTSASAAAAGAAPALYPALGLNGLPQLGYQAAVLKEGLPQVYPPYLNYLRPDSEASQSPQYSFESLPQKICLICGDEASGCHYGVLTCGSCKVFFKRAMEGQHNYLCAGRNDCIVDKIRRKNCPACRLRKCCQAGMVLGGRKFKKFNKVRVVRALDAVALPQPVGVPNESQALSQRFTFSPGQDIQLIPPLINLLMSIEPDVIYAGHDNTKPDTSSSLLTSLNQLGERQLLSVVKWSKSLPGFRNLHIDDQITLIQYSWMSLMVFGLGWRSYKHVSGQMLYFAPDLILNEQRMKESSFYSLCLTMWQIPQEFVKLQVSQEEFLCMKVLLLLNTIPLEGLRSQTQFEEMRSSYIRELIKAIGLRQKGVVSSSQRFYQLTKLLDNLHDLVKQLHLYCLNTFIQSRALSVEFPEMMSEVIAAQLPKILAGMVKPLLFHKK
Assay: Test of progesterone receptor agonist activity (luciferase transactivation, HEK293T)
Assay type: cell-based
Details: 24 hours, increasing amounts
Method: The main experimental setting used is the following: HEK293T cells were transiently transfected, using calcium phosphate precipitation technology, with expression receptors pSG5hPR (which permits expression of human progesterone receptor (PR)), pFC31-luc (contains the luciferase gene under the control of the MTV promoter, which is in turn activated by binding of a progestin to progesterone receptor) and pcbetagal (which permits expression of betagalactosidase), and cultured during 24 hours with increasing amounts of various compositions: • 1. […] Test of progesterone receptor […] activity: transfected cells were cultured with progesterone (1 nM) and increasing amounts of RU486 (a well-known progesterone receptor antagonist) or 3-methoxy-pregnenolone. • With this setting, a compound with progesterone receptor antagonist activity competes with progesterone for the occupation of progesterone receptor and results in a progressive loss of transactivation activity when the amount of this compound is increased compared to progesterone. Results

CO[C@H]1CC[C@@]2(C)C(=CC[C@H]3[C@@H]4CC[C@H](C(C)=O)[C@@]4(C)CC[C@@H]32)C1 [3-methoxy-PREG, 3β-methoxy-pregna-5-ene-20-one]
progesterone receptor agonist activity (transactivation): does not have progesterone receptor agonist activity
